Data reported in the Deep4Chem optical property database.
Each block holds one molecule with its values, some of them ahead of it.

Assay: photoluminescence quantum yield (fraction); solvent given as SMILES
[1] = in O=P(c1ccccc1)(c1ccccc1)c1ccccc1Oc1ccccc1P(=O)(c1ccccc1)c1ccccc1

Compound: CCN(CC)c1ccc([N+]2=Cc3ccc4c5c(ccc4c3O[B-]2(c2ccccc2)c2ccccc2)C=[N+](c2ccc(N(CC)CC)cc2)[B-](c2ccccc2)(c2ccccc2)O5)cc1
photoluminescence quantum yield (in Cc1ccccc1): 0.4
photoluminescence quantum yield (in ClCCl): 0.29

photoluminescence quantum yield (in C1COCCO1): 0.29
photoluminescence quantum yield (in CC#N): 0.01
photoluminescence quantum yield (in ClCCl): 0.09
Compound: Cc1nc2cc(/C=C/c3ccc(N(C)C)cc3)ccc2nc1-c1ccccc1

photoluminescence quantum yield (in ClCCl): 0.87
Compound: CC[C@H](C)COc1ccc(C2=C3C(C)=CC(C)=[N+]3[B-](F)(F)n3c(C)cc(C)c32)cc1

Compound: CCn1c2sccc2c2c3nsnc3c3c4ccsc4n(CC)c3c21
photoluminescence quantum yield (in C1CCOC1): 0.51
photoluminescence quantum yield (in CCOC(C)=O): 0.47
photoluminescence quantum yield (in CN(C)C=O): 0.43
photoluminescence quantum yield (in Cc1ccccc1): 0.45
photoluminescence quantum yield (in ClCCl): 0.34

Compound: O=C1c2ccc(-c3ccc(N(c4ccccc4)c4ccccc4)cc3)cc2C(=O)c2ccc(-c3ccc(N(c4ccccc4)c4ccccc4)cc3)cc21
photoluminescence quantum yield (in Cc1ccccc1): 0.59
photoluminescence quantum yield (in c1ccc2c(c1)c1ccccc1n2-c1ccc(-c2ccc(-n3c4ccccc4c4ccccc43)cc2)cc1): 0.8

photoluminescence quantum yield (in CC#N): 0.33
photoluminescence quantum yield (in CO): 0.04
photoluminescence quantum yield (in ClCCl): 0.93
Compound: COc1cc(C=O)cc(-c2[nH]c(=O)n3c2-c2ccccc2C3=O)c1O

photoluminescence quantum yield (in CO): 0.0074
photoluminescence quantum yield (in ClCCl): 0.24
Compound: CCCCCCN(CCCCCC)c1ccc(C#Cc2ccc(C(F)(F)F)cc2)cc1

Compound: F[B-]1(F)OC(c2ccc(C(F)(F)F)cc2)=Cc2cc(Cl)nc[n+]21
photoluminescence quantum yield (in C1CCOC1): 0.01
photoluminescence quantum yield (in CC#N): 0.01
photoluminescence quantum yield (in Cc1ccccc1): 0.04
photoluminescence quantum yield (in ClC(Cl)Cl): 0.01
photoluminescence quantum yield (in ClCCl): 0.01

photoluminescence quantum yield (in ClCCl): 0.5
Compound: CCCCN(CCCC)c1ccc(C#Cc2cc(C#Cc3ccc(C(F)(F)F)cc3)c(C#Cc3ccc(N(CCCC)CCCC)cc3)cc2C#Cc2ccc(C(F)(F)F)cc2)cc1

photoluminescence quantum yield (in C1CCOC1): 0.68
photoluminescence quantum yield (in C1COCCO1): 0.72
photoluminescence quantum yield (in CC#N): 0.65
photoluminescence quantum yield (in CC(C)O): 0.53
photoluminescence quantum yield (in CCO): 0.44
photoluminescence quantum yield (in CCOC(C)=O): 0.72
photoluminescence quantum yield (in CN(C)C=O): 0.71
photoluminescence quantum yield (in CO): 0.36
photoluminescence quantum yield (in CS(C)=O): 0.75
photoluminescence quantum yield (in O): 0.56
Compound: NS(=O)(=O)c1ccc(N2N=C(c3ccc(O)cc3)CC2c2ccc(Cl)cc2)cc1 (stereo not drawn)

photoluminescence quantum yield (in O): 0.008
Compound: [NH3+]c1cc([NH3+])cc(-c2[nH+]c3ccccc3s2)c1

Compound: CC(C)(C)c1ccc2c(c1)c1cc(C(C)(C)C)ccc1n2-c1ccccc1-c1nc(-c2ccccc2P(=O)(c2ccccc2)c2ccccc2)nc(-c2ccccc2P(=O)(c2ccccc2)c2ccccc2)n1
photoluminescence quantum yield [1]: 0.38

photoluminescence quantum yield (in CO): 0
Compound: CCN(CC)c1ccc(-c2c3c(n4ccc(C(C)=O)cc24)C(=O)N(CCCNC(=O)OC(C)(C)C)C3)cc1

photoluminescence quantum yield (in C1CCCCC1): 0.026
photoluminescence quantum yield (in CC#N): 0.0012
photoluminescence quantum yield (in CCO): 0
Compound: COc1cc(OC)c2c(c1)C(=O)c1ccccc1-2

photoluminescence quantum yield (in ClCCl): 0.47
Compound: O=C1c2ccccc2C2=Cc3cccc[n+]3[B-](F)(F)N12

Compound: c1ccc(-c2nc3ccccc3nc2-c2cc(-n3c4ccccc4c4ccccc43)cc(-n3c4ccccc4c4ccccc43)c2)cc1
photoluminescence quantum yield (in Cc1ccccc1): 0.19

photoluminescence quantum yield (in ClC(Cl)Cl): 0.03
Compound: CCCCCCCCn1c(=O)c2cc3c(-c4ccc(N(c5ccccc5)c5ccccc5)cc4)c4cc5c(=O)n(CCCCCCCC)c(=O)c5cc4c(-c4ccc(N(c5ccccc5)c5ccccc5)cc4)c3cc2c1=O

Compound: COc1ccc(-c2csc(/C(C#N)=N\Nc3ccc(C#N)cc3)n2)cc1
photoluminescence quantum yield (in CC#N): 0.001
photoluminescence quantum yield (in CCO): 0.002
photoluminescence quantum yield (in CN(C)C=O): 0
photoluminescence quantum yield (in Cc1ccccc1): 0.002
photoluminescence quantum yield (in ClCCl): 0.002

photoluminescence quantum yield (in ClCCl): 0.4
Compound: CN(C)c1ccc(/C=C/c2cc(/C=C/c3ccc(N(C)C)cc3)ncn2)cc1

Compound: Cc1ccc(C)n1-c1cccc(C#N)c1
photoluminescence quantum yield (in C1CCOC1): 0.006
photoluminescence quantum yield (in CCCCCC): 0.004
photoluminescence quantum yield (in CCCCCl): 0.004
photoluminescence quantum yield (in CCOCC): 0.006
photoluminescence quantum yield (in ClCCl): 0.003

photoluminescence quantum yield (in CCCCC(CC)n1c2ccc(-n3c4ccccc4c4ccccc43)cc2c2cc(-n3c4ccccc4c4ccccc43)ccc21): 0.109
photoluminescence quantum yield (in c1cc(-n2c3ccccc3c3ccccc32)cc(-n2c3ccccc3c3ccccc32)c1): 0.218
Compound: O=S(=O)(c1cccc(-n2c3ccccc3c3ccccc32)c1)c1cccc(-n2c3ccccc3c3ccccc32)c1

Compound: Cc1nnc(-c2cc(-c3nnc(C)o3)c(-n3c4ccccc4c4ccccc43)cc2-n2c3ccccc3c3ccccc32)o1
photoluminescence quantum yield (in Cc1ccccc1): 0.068
photoluminescence quantum yield [1]: 0.59

Compound: O=[N+]([O-])c1ccc(/C2=C3N=C(C(c4ccccc4)=C/3c3ccccc3)/C(c3ccc([N+](=O)[O-])cc3)=c3\[nH]/c(c(-c4ccccc4)c3-c3ccccc3)=C(/c3ccc([N+](=O)[O-])cc3)C3=N/C(=C(/c4ccc([N+](=O)[O-])cc4)c4[nH]c2c(-c2ccccc2)c4-c2ccccc2)C(c2ccccc2)=C3c2ccccc2)cc1
photoluminescence quantum yield (in ClCCl): 0.003

Compound: CCCC1=Cc2nc1ccc1[nH]c(cc1CCC)c1nc(c(OC)cc3[nH]c2cc3CCC)C(CCC)=C1
photoluminescence quantum yield (in Cc1ccccc1): 0.18

photoluminescence quantum yield (in CC#N): 0.101
Compound: N#C/C(=C\c1ccc(C#N)cc1)c1nc(-c2ccccc2)c(-c2ccccc2)s1

Compound: F[B-]1(F)n2cccc2C(c2c3ccccc3cc3ccccc23)=C2C=CC=[N+]21
photoluminescence quantum yield (in CCCCCC): 0.135
photoluminescence quantum yield (in Cc1ccccc1): 0.008
photoluminescence quantum yield (in ClCCl): 0.002

Compound: CC1(C)c2ccccc2N(c2ccccc2)c2ccc(-c3ccc(S(=O)(=O)c4ccc(-c5ccc6c(c5)C(C)(C)c5ccccc5N6c5ccccc5)cc4)cc3)cc21
photoluminescence quantum yield [1]: 0.87

photoluminescence quantum yield (in CC#N): 0.76
photoluminescence quantum yield (in CCCCCC): 0.82
photoluminescence quantum yield (in CCOC(C)=O): 0.67
photoluminescence quantum yield (in CO): 0.72
photoluminescence quantum yield (in ClCCl): 0.8
Compound: F[B-]1(F)n2c(Cl)ccc2C(c2c(Cl)cccc2Cl)=C2C=CC(NCc3ccccc3)=[N+]21

photoluminescence quantum yield (in ClC(Cl)Cl): 0.34
Compound: CCn1c2ccccc2oc2c(C#N)c3oc4ccccc4oc3c(C#N)c21

photoluminescence quantum yield (in CO): 0.002
Compound: Clc1ccc(/C=C(\c2ccccc2)c2nc3ccccc3o2)cc1

photoluminescence quantum yield (in ClC(Cl)Cl): 0.14
Compound: N#Cc1cc2ccc3cc(C#N)c4ccccc4c3c2c2ccccc12

Compound: CCCCCCC1(CCCCCC)c2cc(-c3nc(-c4ccc5c(c4)C(CCCCCC)(CCCCCC)c4cc(N6c7ccccc7Sc7ccccc76)ccc4-5)nc(-c4ccc5c(c4)C(CCCCCC)(CCCCCC)c4cc(N6c7ccccc7Sc7ccccc76)ccc4-5)n3)ccc2-c2ccc(N3c4ccccc4Sc4ccccc43)cc21
photoluminescence quantum yield (in C1CCOC1): 0.01
photoluminescence quantum yield (in CCCCCC): 0.04
photoluminescence quantum yield (in Cc1ccccc1): 0.02
photoluminescence quantum yield (in ClCCl): 0.003

photoluminescence quantum yield (in C1COCCO1): 0.437
Compound: CC(=O)Nc1ccc(C2=C/C(=C\c3ccc(C#N)cc3)C(=O)O2)cc1

photoluminescence quantum yield (in ClCCl): 0.77
Compound: Cc1cccc(-c2c3ccccc3c(-c3cccc(C)n3)c3ccccc23)n1

photoluminescence quantum yield (in ClC(Cl)Cl): 0.1
Compound: COc1ccc(-c2oc3cccc4c5c(-c6ccc(OC)c(OC)c6)/c(=N/S(=O)(=O)C(F)(F)F)oc6cccc(c2c34)c65)cc1OC

photoluminescence quantum yield (in C1CCCCC1): 0.02
photoluminescence quantum yield (in CO): 0.003
Compound: C/C(=C\c1ccc(Cl)cc1)c1nc2ccccc2o1

photoluminescence quantum yield (in CC#N): 0.024
photoluminescence quantum yield (in CO): 0.017
photoluminescence quantum yield (in ClCCl): 0.125
photoluminescence quantum yield (in O): 0.002
Compound: CCOC(=O)CC[N+]1=c2cc3c(cc2CCC1)=Cc1c(c2cc4c5c(c2oc1=O)CCCN5CCC4)O3

photoluminescence quantum yield (in C1CCOC1): 0.37
Compound: c1cc2ccc1-c1ccc(cc1)-c1ccc(s1)-c1ccc(cc1)-c1ccc(cc1)-c1ccc(s1)-c1ccc(cc1)-c1ccc(cc1)-c1ccc(s1)-c1ccc(cc1)-c1ccc(cc1)-c1ccc-2s1

Compound: Cc1ccc(N(c2ccc(C)cc2)c2ccc(-c3ccc4c(c3)C(=O)c3ccccc3C4=O)cc2)cc1
photoluminescence quantum yield (in C1CCOC1): 0
photoluminescence quantum yield (in CCCCCC): 0.403
photoluminescence quantum yield (in CCOC(C)=O): 0
photoluminescence quantum yield (in CCOCC): 0.0041
photoluminescence quantum yield (in Cc1ccccc1): 0.0801
photoluminescence quantum yield (in ClC(Cl)(Cl)Cl): 0.246
photoluminescence quantum yield (in ClCCl): 0

photoluminescence quantum yield (in ClCCl): 0.43
Compound: Cc1ccc(C#Cc2ccc3nc4ccc(C#Cc5ccc(C)cc5)cn4c(=O)c3c2)cc1

photoluminescence quantum yield (in ClCCl): 0.8
Compound: CN(C)c1ccc(-c2nc(-c3ccc(N(C)C)cc3)c3ccccc3n2)cc1

photoluminescence quantum yield (in C1CCCCC1): 0.78
photoluminescence quantum yield (in C1COCCO1): 0.89
photoluminescence quantum yield (in CC#N): 0.79
photoluminescence quantum yield (in CCO): 0.86
photoluminescence quantum yield (in CS(C)=O): 0.71
photoluminescence quantum yield (in ClC(Cl)Cl): 0.77
photoluminescence quantum yield (in ClCCl): 0.73
Compound: COc1ccc(C#Cc2ccc(C#Cc3ccc(P(=O)(c4ccc(C#Cc5ccc(C#Cc6ccc(OC)cc6)cc5)cc4)c4ccc(C#Cc5ccc(C#Cc6ccc(OC)cc6)cc5)cc4)cc3)cc2)cc1

photoluminescence quantum yield (in ClCCl): 0.49
Compound: F[B-]1(F)N2C=CN=CC2=[N+]2[N+]1=Cc1c(-c3ccccc3)cc(-c3ccccc3)n1[B-]2(F)F

photoluminescence quantum yield (in C1COCCO1): 0.16
photoluminescence quantum yield (in CC#N): 0.13
photoluminescence quantum yield (in CCCCCC): 0.16
photoluminescence quantum yield (in CCCCCCC): 0.16
photoluminescence quantum yield (in CCCO): 0.13
photoluminescence quantum yield (in CCOC(C)=O): 0.13
photoluminescence quantum yield (in CS(C)=O): 0.21
photoluminescence quantum yield (in ClC(Cl)Cl): 0.18
photoluminescence quantum yield (in ClCCl): 0.22
Compound: COc1ccc(C#Cc2ccc(C#N)cc2)cc1OC

photoluminescence quantum yield (in CC#N): 0.1
photoluminescence quantum yield (in ClCCl): 0.05
Compound: Cc1cc(-c2ccccc2C)cc(C)[o+]1

photoluminescence quantum yield (in ClCCl): 0.79
Compound: C(#Cc1c2ccccc2c(-c2ccccc2)c2cc3ccccc3cc12)c1ccccc1

photoluminescence quantum yield (in CC#N): 0.13
Compound: O=C(O)c1ccc(-c2nc(-c3ccccc3)c3ccccn23)cc1

photoluminescence quantum yield (in ClCCl): 0.3
Compound: C[Si]1(C)O[Si](C)(C)c2cc3c(-c4ccccc4)c4cc([N+](=O)[O-])ccc4nc3cc21

photoluminescence quantum yield (in ClCCl): 0.64
Compound: CCCCC(CC)Cn1c2cc(C#N)ccc2c2ccc(C#Cc3ccc4ccc5c(C#Cc6ccc7c8ccc(C#N)cc8n(CC(CC)CCCC)c7c6)cc(C#Cc6ccc7c8ccc(C#N)cc8n(CC(CC)CCCC)c7c6)c6ccc3c4c56)cc21 (stereo not drawn)

photoluminescence quantum yield (in CCO): 0.31
photoluminescence quantum yield (in ClCCl): 0.91
Compound: COc1ccc(-c2c3ccc(=[N+]4CCCCC4)cc-3oc3cc(N4CCCCC4)ccc23)cc1

photoluminescence quantum yield (in CS(C)=O): 0.48
Compound: Clc1ccccc1-c1nc2sc3ccccc3c2s1

photoluminescence quantum yield (in ClCCl): 0.38
Compound: COc1ccc(-c2cnc(/C=C/c3ccc(C#N)cc3)o2)cc1OC
